One test has as its target T1, human ETA receptors (Homo sapiens, UniProt P25101).
T1 construct: made in house
T1 sequence (P25101 21-427): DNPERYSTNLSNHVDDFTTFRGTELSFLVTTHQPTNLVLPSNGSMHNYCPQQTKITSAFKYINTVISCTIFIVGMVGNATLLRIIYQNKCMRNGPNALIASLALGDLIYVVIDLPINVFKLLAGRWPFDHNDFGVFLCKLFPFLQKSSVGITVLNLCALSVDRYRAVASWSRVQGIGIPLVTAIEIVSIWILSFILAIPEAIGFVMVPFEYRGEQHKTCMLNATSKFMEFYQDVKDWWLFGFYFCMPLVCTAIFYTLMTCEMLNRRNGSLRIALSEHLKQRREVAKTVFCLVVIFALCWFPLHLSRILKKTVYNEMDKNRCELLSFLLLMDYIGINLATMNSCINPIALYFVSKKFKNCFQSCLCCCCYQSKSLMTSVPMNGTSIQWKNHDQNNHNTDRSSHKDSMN
Briefly: Inhibition of endothelin binding to recombinant ETA receptors. As to conditions: 125I-endothelin 20 pM; 20° C. for 2 hours or 4° C. for 24 hours; baculovirus-insect cell membranes; read-out: IC50 (concentration required to inhibit 50% of the specific binding of 125I-endothelin). As to the method: I: Inhibition of endothelin binding to recombinant ETA receptors
A cDNA coding for human ETA receptors of human placenta was cloned (M. Adachi, Y.-Y. Yang, Y. Furuichi and C. Miyamoto, BBRC 180, 1265-1272) and expressed in the baculovirus-insect cell system. Baculovirus-infected insect cells from a 23 l fermenter are centrifuged off (3000×g, 15 minutes, 4° C.) 60 hours after the infection, re-suspended in Tris buffer (5 mM, pH 7.4, 1 mM MgCl2) and again centrifuged. After a further re-suspension and centrifugation the cells are suspended in 800 ml of the same buffer and […] at -120° C. The cells disintegrate when the suspension in this hypotonic buffer mixture is thawed. After a repeated freeze-drying/thawing cycle the suspension is homogenized and centrifuged (25000 ×g, 15 minutes, 4° C.). After suspension in Tris buffer (75 mM, pH 7.4, 25 mM MgCl2, 250 mM saccharose) 1 ml aliquots (protein content about 3.5 mg/ml) are stored at -85° C.
For the binding assay, the […] membrane preparations are thawed and, after centrifugation at 20° C. and 25000 g for 10 minutes, re-suspended in assay buffer (50 mM Tris buffer, pH 7.4, containing 25 mM MnCl2, 1 mM EDTA and 0.5% bovine serum albumin). […] of this membrane suspension containing […] of protein are incubated with […] of ^125 I-endothelin (specific activity 2200 Ci/mMol) in assay buffer (25000 cpm, final concentration 20 pM) and […] of assay buffer containing varying concentrations of test compound. The incubation is carried out at 20° C. for 2 hours or at 4° C. for 24 hours. The separation of free and membrane-bound radio-ligands is carried out by filtration over a glass fiber filter.
The inhibitory activity of compounds of formula I determined in this test procedure is given in Table 1 as the IC50, i.e. as the concentration […] which is required to inhibit 50% of the specific binding of ^125 I-endothelin.

Test [1] deals with "stroke-prone", spontaneously hypertensive rats. Briefly: In vivo blood pressure in pathophysiologically relevant rat model (telemetry). The conditions noted are these: 30 mg/kg in gum arabic, by probe. As to the method: A telemetric system (PA-C40 implant) was implanted into "stroke-prone", spontaneously hypertensive rats under anaesthesia in order that the arterial blood pressure and the heart rate could be measured continuously. The animals were left to recover for 2 weeks after the operation.
The corresponding test compound (30 mg/kg in gum arabic) was finally administered using a probe and the blood pressure was registered continuously. It became evident that compounds of formula I caused a fall in blood pressure, the administration of gum arabic alone (placebo control) having no significant effect on the blood pressure.

Test [2] relates to endothelin-induced contractions in isolated rat aorta rings. Briefly: Inhibition of endothelin-induced contractions in isolated rat aorta rings. It counts as cell-based, rat (adult Wistar-Kyoto). As to conditions: endothelin-1, no antagonist; half-maximum contraction; read-out: EC50 of endothelin in the absence of test compounds. As to the method: II. Inhibition of endothelin-induced contractions in isolated rat aorta rings
Rings with a length of 5 mm were cut out from the thorax aorta of adult Wistar-Kyoto rats. The endothelium was removed by lightly rubbing the internal surface. Each ring was immersed at 37° C. in 10 ml of Krebs-Henseleit solution in an isolated bath while gassing with 95% O2 and 5% CO2. The isometric stretching of the tings was measured. The rings were stretched to a pre-tension of 3 g. After incubation for 10 minutes with the test compound or vehicle cumulative dosages of endothelin-1 were added. The activity of the test compound was ascertained by the observed shift to the right of the dosage-activity curve of endothelin-1 in the presence of different concentrations of antagonist. This shift to the right (or "dose ratio", DR) corresponds to the quotient from the EC50 values of endothelin-1 in the presence and in the absence of antagonist, with the EC50 value denoting the endothelin concentration required for a half-maximum contraction.
The corresponding PA2 value, which is a measure of the activity of the test compound, was calculated using a computer programme according to the following equation from the "dose ratio" DR for each individual dosage-activity curve.
pA2 =log(DR-1)-log(antagonist-concentration)
The EC50 of endothelin in the absence of test compounds is 0.3 nM.

What is called EC50 is the midpoint of the concentration-response curve.

Take `COCCc1nc(NS(=O)(=O)c2ccc3c(c2)OCO3)c(Oc2cc(OC)ccc2Cl)c(OCCOC(=O)Nc2ccccn2)n1` [Example 10, pyridine-2-ylcarbamic acid 2-[6-(1,3-benzodioxol-5-ylsulfonylamino)-5-(2-chloro-5-methoxy-phenoxy)-2-(2-methoxyethyl)-pyrimidin-4-yloxy]-ethyl ester]: on human ETA receptors, the IC50 was 1 nM. In the case of `COc1ccccc1Oc1c(NS(=O)(=O)c2ccc(C(C)(C)C)cc2)nc(-c2ncccn2)nc1OCCOC(=O)Nc1ccccn1` [Example 70, pyridin-2-ylcarbamic acid 2-[6-(4-tert-butyl-phenylsulfonylamino)-5-(2-methoxy-phenoxy)-2,2'-bipyrimidin-4-yloxy]-ethyl ester], the “% Decrease in the average arterial blood pressure (mm Hg)” value in test [1] amounted to 30%. The IC50 at human ETA receptors turned out to be 6 nM.

On to `COc1ccccc1Oc1c(NS(=O)(=O)c2ccc(C(C)(C)C)cc2)nc(N2CCOCC2)nc1OCCOC(=O)Nc1ccco1` [Example 75, furan-2-ylcarbamicacid 2-[6-(4-tert-butyl-phenylsulfonylamino)-5-(2-methoxy-phenoxy)-2-morpholin-4-yl-pyrimidin-4-yloxy]-ethyl ester], for which the IC50 on human ETA receptors was 3 nM. Still for that read-out and setting: for `COc1ccc(S(=O)(=O)Nc2ncnc(OCCOC(=O)Nc3ccccn3)c2Oc2ccccc2OC)cc1CCC(=O)N1CCOCC1` [Example 120, pyridin-2-ylcarbamic acid 2-[6-[4-methoxy-3-(3-morpholin-4-yl-3-oxo-propyl)-phenylsulfonylamino]-5-(2-methoxy-phenoxy)-pyrimidin-4-yloxy]-ethyl ester] the value was 7 nM. On the same count and under the same terms, as for `COc1ccc(Cl)c(Oc2c(NS(=O)(=O)c3ccc(C(C)(C)C)cc3)ncnc2OCCNC(=O)Nc2ccncc2)c1` [Example 134], the figure is 44 nM.

For the molecule `COc1ccc(Cl)c(Oc2c(NS(=O)(=O)c3ccc4c(c3)OCO4)ncnc2OCCOC(=O)OCc2ccccn2)c1` [Example 140, carboxylic acid 2-[6-(1,3-benzodioxol-5-ylsulfonylamino)-5-(2-chloro-5-methoxy-phenoxy)-pyrimidin-4-yloxy]-ethyl ester pyridin-2-ylmethyl ester], the IC50 on human ETA receptors was 9 nM. Consider “endothelin: endothelin-1, agonist added in cumulative dosages to the rat aorta rings”, for which the EC50 in test [2] was found to be 0.3 nM.

These data come from US5541186A, “Sulfonylaminopyrimidines” (Hoffmann-La Roche Inc., priority 1993, dated 1996).
